Where “and” joins values, the source holds several entries; their conditions need not be identical. Identical values can stand only once. Toxic doses and inconclusive results are not listed. Cut-off read from the data, not from the text of the source: active = T/C of 150% or more; inactive = T/C below 125%.
Test system: L1210 leukemia ip in BDF1 mice, survival T/C
Assay: NCI In Vivo Anticancer Drug Screen. Data for tumor model L1210 Leukemia (intraperitoneal) in B6D2F1 (BDF1) mice
Details: endpoint: mean survival time, higher = longer survival
Summary of the method: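 Ratio derived from survival: compound-dosed mice over vehicle-dosed mice, all bearing a transplantable tumor.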

[1] = dose: 100.0 mg/kg/injection, schedule: Q04DX002 (ip), vehicle: Klucel (hydroxypropylcellulose) (HPC)
[2] = dose: 200.0 mg/kg/injection, schedule: Q04DX002 (ip), vehicle: Klucel (hydroxypropylcellulose) (HPC)
[3] = dose: 100.0 mg/kg/injection, schedule: Q01DX009 (ip), vehicle: saline
[4] = dose: 100.0 mg/kg/injection, schedule: Q01DX001 (ip), vehicle: Klucel (hydroxypropylcellulose) (HPC)
[5] = dose: 200.0 mg/kg/injection, schedule: Q01DX001 (ip), vehicle: Klucel (hydroxypropylcellulose) (HPC)
[6] = dose: 400.0 mg/kg/injection, schedule: Q01DX001 (ip), vehicle: Klucel (hydroxypropylcellulose) (HPC)
[7] = dose: 100.0 mg/kg/injection, schedule: Q04DX003 (ip), vehicle: Klucel (hydroxypropylcellulose) (HPC)
[8] = dose: 200.0 mg/kg/injection, schedule: Q04DX003 (ip), vehicle: Klucel (hydroxypropylcellulose) (HPC)
[9] = dose: 400.0 mg/kg/injection, schedule: Q04DX003 (ip), vehicle: Klucel (hydroxypropylcellulose) (HPC)
[10] = dose: 100.0 mg/kg/injection, schedule: Q04DX003 (ip), vehicle: saline with Tween-80
[11] = dose: 50.0 mg/kg/injection, schedule: Q01DX001 (ip), vehicle: carboxymethylcellulose (CMC)
[12] = dose: 200.0 mg/kg/injection, schedule: Q01DX001 (ip), vehicle: carboxymethylcellulose (CMC)
[13] = dose: 200.0 mg/kg/injection, schedule: Q01DX009 (ip), vehicle: saline
[14] = dose: 400.0 mg/kg/injection, schedule: Q01DX009 (ip), vehicle: saline

Measured: T/C

CS(=O)(=O)Nc1ccccc1-c1nc2ccccc2c(=O)o1
inactive: dose: 50.0 mg/kg/injection, schedule: Q04DX002 (ip), vehicle: Klucel (hydroxypropylcellulose) (HPC) 98 % of control | [1] 98 % of control | [2] 98 % of control | dose: 400.0 mg/kg/injection, schedule: Q04DX002 (ip), vehicle: Klucel (hydroxypropylcellulose) (HPC) 92 % of control

N#Cc1ccc(Cl)cc1
inactive: [1] 100 % of control | [2] 102 % of control

BrCC[CH2][Sn]([Br])([Br])[Br]
inactive: dose: 50.0 mg/kg/injection, schedule: Q01DX009 (ip), vehicle: saline 107 % of control | [3] 103 % of control

Nc1cc([N+](=O)[O-])cc([N+](=O)[O-])c1Cl
inactive: [4] 93 % of control | [5] 96 % of control | [6] 101 % of control

O=C(CBr)c1ccncc1
inactive: dose: 5.0 mg/kg/injection, schedule: Q01DX001 (ip), vehicle: saline 103 % of control | dose: 10.0 mg/kg/injection, schedule: Q01DX001 (ip), vehicle: saline 103 % of control | dose: 20.0 mg/kg/injection, schedule: Q01DX001 (ip), vehicle: saline 94 % of control

Cc1ccc(NC(=O)Nc2ccc(Nc3ccccc3)cc2)c([N+](=O)[O-])c1
inactive: [7] 94 % of control | [8] 90 % of control | [9] 90 % of control

NC(N)=NC(N)=NCCCCc1ccccc1
inactive: dose: 25.0 mg/kg/injection, schedule: Q04DX003 (ip), vehicle: Klucel (hydroxypropylcellulose) (HPC) 95 % of control | dose: 50.0 mg/kg/injection, schedule: Q04DX003 (ip), vehicle: Klucel (hydroxypropylcellulose) (HPC) 109 % of control | [7] 101 % of control

O=C(O)CNCc1ccc(Cl)cc1
inactive: dose: 12.5 mg/kg/injection, schedule: Q01DX009 (ip), vehicle: water 104 % of control | dose: 25.0 mg/kg/injection, schedule: Q01DX009 (ip), vehicle: water 96 % of control | dose: 50.0 mg/kg/injection, schedule: Q01DX009 (ip), vehicle: water 104 % of control and 91 % of control | dose: 100.0 mg/kg/injection, schedule: Q01DX009 (ip), vehicle: water 100 % of control | dose: 100.0 mg/kg/injection, schedule: Q01DX Z (ip), vehicle: saline 111 % of control | dose: 100.0 mg/kg/injection, schedule: Q04DX003 (ip), vehicle: water 88 % of control | dose: 200.0 mg/kg/injection, schedule: Q01DX Z (ip), vehicle: saline 100 % of control | dose: 200.0 mg/kg/injection, schedule: Q04DX003 (ip), vehicle: water 92 % of control

O=C(SCc1ccccc1)c1cccnc1
inactive: [10] 99 % of control

N=C(Oc1c(Cl)c(Cl)c(Cl)c(Cl)c1Cl)Oc1c(Cl)c(Cl)c(Cl)c(Cl)c1Cl
inactive: dose: 100.0 mg/kg/injection, schedule: Q01DX009 (ip), vehicle: Klucel (hydroxypropylcellulose) (HPC) 100 % of control | dose: 200.0 mg/kg/injection, schedule: Q01DX009 (ip), vehicle: Klucel (hydroxypropylcellulose) (HPC) 111 % of control | dose: 400.0 mg/kg/injection, schedule: Q01DX009 (ip), vehicle: Klucel (hydroxypropylcellulose) (HPC) 102 % of control

Nc1ccc(CCCCc2ccc(Cl)cc2Cl)cc1
inactive: dose: 50.0 mg/kg/injection, schedule: Q01DX001 (ip), vehicle: Klucel (hydroxypropylcellulose) (HPC) 100 % of control | dose: 50.0 mg/kg/injection, schedule: Q01DX009 (ip), vehicle: saline with Tween-80 96 % of control | [4] 94 % of control | dose: 100.0 mg/kg/injection, schedule: Q01DX009 (ip), vehicle: saline with Tween-80 102 % of control | [5] 109 % of control

CC(C)CCNNCCC(C)C
inactive: dose: 75.0 mg/kg/injection, schedule: Q01DX001 (ip), vehicle: other 108 % of control | dose: 150.0 mg/kg/injection, schedule: Q01DX001 (ip), vehicle: other 104 % of control

CCCCCCCCCC(=O)N1CCCCC1C (configuration not stated)
inactive: dose: 25.0 mg/kg/injection, schedule: Q04DX002 (ip), vehicle: carboxymethylcellulose (CMC) 97 % of control and 99 % of control | [11] 93 % of control | dose: 50.0 mg/kg/injection, schedule: Q01DX009 (ip), vehicle: carboxymethylcellulose (CMC) 98 % of control and 103 % of control | dose: 50.0 mg/kg/injection, schedule: Q04DX002 (ip), vehicle: carboxymethylcellulose (CMC) 96 % of control and 97 % of control | dose: 50.0 mg/kg/injection, schedule: Q04DX003 (ip), vehicle: carboxymethylcellulose (CMC) 95 % of control | dose: 100.0 mg/kg/injection, schedule: Q01DX001 (ip), vehicle: carboxymethylcellulose (CMC) 93 % of control | dose: 100.0 mg/kg/injection, schedule: Q01DX009 (ip), vehicle: carboxymethylcellulose (CMC) 94 % of control and 100 % of control | dose: 100.0 mg/kg/injection, schedule: Q04DX003 (ip), vehicle: carboxymethylcellulose (CMC) 97 % of control | [12] 96 % of control | dose: 200.0 mg/kg/injection, schedule: Q01DX009 (ip), vehicle: carboxymethylcellulose (CMC) 100 % of control and 104 % of control | dose: 200.0 mg/kg/injection, schedule: Q04DX002 (ip), vehicle: carboxymethylcellulose (CMC) 107 % of control and 92 % of control | dose: 200.0 mg/kg/injection, schedule: Q04DX003 (ip), vehicle: carboxymethylcellulose (CMC) 95 % of control | dose: 400.0 mg/kg/injection, schedule: Q04DX002 (ip), vehicle: carboxymethylcellulose (CMC) 103 % of control and 90 % of control

Nc1nc(N)c(N)c(Nc2ccc(Cl)cc2)n1
inactive: [1] 101 % of control | [2] 101 % of control

CCOC(=O)C(C)(C(=O)OCC)c1cc(OC)c(C)cc1Br
inactive: dose: 50.0 mg/kg/injection, schedule: Q04DX003 (ip), vehicle: saline with Tween-80 100 % of control | [10] 103 % of control | dose: 200.0 mg/kg/injection, schedule: Q04DX003 (ip), vehicle: saline with Tween-80 100 % of control | dose: 400.0 mg/kg/injection, schedule: Q04DX003 (ip), vehicle: saline with Tween-80 97 % of control

CCCCCCCCN1C(=O)C2C(C1=O)C1(Cl)C(Cl)=C(Cl)C2(Cl)C1(Cl)Cl (configuration not stated)
inactive: [3] 95 % of control | [13] 97 % of control | [14] 93 % of control

Nc1nc(SCc2ccccc2)c(N)c(=S)[nH]1
inactive: [4] 95 % of control | [5] 90 % of control | [6] 93 % of control

Cc1ccc(NCc2cccc3ccccc23)c(C)c1
inactive: [3] 96 % of control | dose: 100.0 mg/kg/injection, schedule: Q04DX003 (ip), vehicle: saline 104 % of control | [13] 97 % of control | dose: 200.0 mg/kg/injection, schedule: Q04DX003 (ip), vehicle: saline 102 % of control | [14] 94 % of control | dose: 400.0 mg/kg/injection, schedule: Q04DX003 (ip), vehicle: saline 96 % of control

CN(N=O)C(=O)NN(C)C(=O)N(C)N=O
inactive: [11] 114 % of control | [12] 121 % of control | dose: 300.0 mg/kg/injection, schedule: Q01DX001 (ip), vehicle: carboxymethylcellulose (CMC) 114 % of control | dose: 400.0 mg/kg/injection, schedule: Q01DX001 (ip), vehicle: carboxymethylcellulose (CMC) 121 % of control

O=C1c2ccccc2CCC12OC2c1ccc(F)cc1 (configuration not stated)
inactive: [7] 97 % of control | [8] 97 % of control | [9] 103 % of control
